# Source: paper PMC10010643 (Cancer Chemotherapy and Pharmacology, 2023)
# Where “and” joins values, the source holds several entries; their conditions need not be identical. Equal values may be shown once. Entries after “also recorded” stand apart in the source; their conditions may differ. Read-outs that look alike come from different tables or passages of the source.
# Test: Plasma PK, Part A single oral doses in healthy participants
# Assay type: in vivo, human
# Conditions: for AUC(0-t) / AUC(0-inf) / Cmax / Tmax / Vd/F / half-life: human, plasma; for Vd/F: read-out: Vz/F, geometric mean (CV%)
# Description: A further two cohorts were recruited. […] Each individual participated in one treatment period only, with the exception of the food-effect cohort (cohort A3) in which there were two treatment periods separated by at least 7 days washout. Participants resided at the Clinical Research Unit (CRU) from 1 day ahead of dosing (day − 1) to day 3 and returned for a follow-up visit 5–7 days after their final dose. For all cohorts, doses were administered in the fasted state in the morning of day 1 of Treatment Period 1. In the food-effect cohort, doses were given 30 min after the start of a high-fat breakfast (973 calories total: approximately 150 protein calories, 250 carbohydrate calories, and 500–600 fat calories) on day 1 of Treatment Period 2. For cohorts A1 to A5 in Treatment Period 1, dosing occurred such that one pair (one active and one placebo) were dosed at least 24 h before the remaining participants. Continuation to dose those who remained was at the investigator’s discretion. Escalating doses were administered following satisfactory sponsor and investigator review of the safety and tolerability data (up to 48 h post-final dose) and PK data (up to 24 h post-final dose) from the lower dose levels.
# Blood samples (4 mL) were collected in K3 EDTA tubes by venipuncture or cannulation. In Part A, samples were taken pre-dose and at 0.5, 1, 1.5, 2, 3, 4, 6, 8, 12, 16, 24, 36 and 48 h post-dose. In part B, samples were taken pre-dose on days 1 (pre-AM dose) and 10 (pre-final dose) and at 0.5, 1, 1.5, 2, 3, 4, 6, 8 and 12 h post-AM dose for day 1 and post-final dose for day 10. Samples were also taken on days 4–9 pre-AM dose, on day 11 at 24 and 36 h post-final dose, and on day 12 at 48 h post-final dose. Blood samples were centrifuged at 1500 g for 10 min at […] and split into two plasma aliquots.
# Urine was collected by spot collection in Part A only before dosing and between 0–6, 6–12, 12–24, and 24–48 h post-dose. Blood and urine aliquots were stored in polypropylene tubes at − 70 °C until bioanalysis.
# Noncompartmental PK analysis was performed on individual plasma and urine concentration data, using Phoenix® WinNonlin® 8.1 software (Certara USA Inc., Princeton NJ). Plasma PK parameter endpoints for Part A included area under the plasma concentration–time curve (AUC) from time 0 to infinity (AUC0–∞), AUC from time 0 to the time of the last quantifiable concentration (AUC0–tlast), maximum observed plasma concentration (Cmax), time of the maximum observed plasma concentration (Tmax), terminal half-life in plasma (t½), apparent total plasma clearance (CL/F), and apparent volume of distribution (Vz/F). Urine PK parameters calculated in Part A included amount of drug excreted in urine (Ae), percentage of dose excreted unchanged in urine (fe) and renal clearance (CLR).
# Dose proportionality was analyzed for exposure parameters after fasted doses. The power model was used on AUC0–∞, AUC0–tlast, and Cmax on day 1 in Part A. Data were analyzed over two dose ranges: 50–400 mg (50 mg capsules) and 5–50 mg (5 mg capsules). An analysis of variance was used on AUC0–τ and Cmax on day 10 in Part B. The effect of food on AUC0–∞, AUC0–tlast, and Cmax at 50 mg in Part A was investigated using a mixed model which included treatment as a fixed effect and subject as a random effect.
# [1] = 50 mg after a high-fat meal vs fasted
smiles,measurement,setting,value
OC[C@H]1O[C@H](Sc2cncc(Br)c2)[C@H](O)[C@@H](n2cc(-c3cc(F)c(F)c(F)c3)nn2)[C@H]1O [GB1211],Delay of absorption in the fed state,[1],2 h and ~ 2 h
same,Effect of food on systemic exposure,[1],unaffected; also recorded: did not markedly affect systemic exposure; also recorded: minor food-effect on drug disposition
same,Dose proportionality of systemic exposure,5–50 mg (5 mg capsule) dose range,dose-proportional manner
same,Dose proportionality of systemic exposure,50–400 mg (50 mg capsule) dose range,sub-proportional manner
same,AUC(0-t),"oral, 5 mg, single dose 5 mg (1 × 5 mg), fasted, read-out: AUC0–tlast, geometric mean (CV%)",677 ng·h/mL
same,AUC(0-inf),"oral, 5 mg, single dose 5 mg (1 × 5 mg), fasted, read-out: AUC0–∞, geometric mean (CV%)",712 ng·h/mL
same,Cmax,"oral, 5 mg, single dose 5 mg (1 × 5 mg), fasted, read-out: Cmax, geometric mean (CV%)",75.2 ng/mL
same,Tmax,"oral, 5 mg, single dose 5 mg (1 × 5 mg), fasted, read-out: Tmax, median (min–max)",2 h
same,Vd/F,"oral, 5 mg, single dose 5 mg (1 × 5 mg), fasted",114 L
same,half-life,"oral, 5 mg, single dose 5 mg (1 × 5 mg), fasted, read-out: t½, arithmetic mean (SD) (converted)",678 min
same,AUC(0-t),"oral, 20 mg, single dose 20 mg (4 × 5 mg), fasted, read-out: AUC0–tlast, geometric mean (CV%)",3150 ng·h/mL
same,AUC(0-inf),"oral, 20 mg, single dose 20 mg (4 × 5 mg), fasted, read-out: AUC0–∞, geometric mean (CV%)",3350 ng·h/mL
same,Cmax,"oral, 20 mg, single dose 20 mg (4 × 5 mg), fasted, read-out: Cmax, geometric mean (CV%)",365 ng/mL
same,Tmax,"oral, 20 mg, single dose 20 mg (4 × 5 mg), fasted, read-out: Tmax, median (min–max)",1.75 h
same,Vd/F,"oral, 20 mg, single dose 20 mg (4 × 5 mg), fasted",104 L
same,half-life,"oral, 20 mg, single dose 20 mg (4 × 5 mg), fasted, read-out: t½, arithmetic mean (SD) (converted)",732 min
same,AUC(0-t),"oral, 50 mg, Fasted, read-out: AUC0–tlast, geometric LS means",4180 ng·h/mL
same,AUC(0-inf),"oral, 50 mg, Fasted, read-out: AUC0–∞, geometric LS means",4520 ng·h/mL
same,Cmax,"oral, 50 mg, Fasted, read-out: Cmax, geometric LS means",358 ng/mL
same,AUC(0-t),"oral, 50 mg, Fed, read-out: AUC0–tlast, geometric LS means",4930 ng·h/mL
same,AUC(0-inf),"oral, 50 mg, Fed, read-out: AUC0–∞, geometric LS means",5420 ng·h/mL
same,Cmax,"oral, 50 mg, Fed, read-out: Cmax, geometric LS means",389 ng/mL
same,AUC(0-t),"oral, 50 mg, single dose 50 mg (1 × 50 mg), fasted, read-out: AUC0–tlast, geometric mean (CV%)",4180 ng·h/mL
same,AUC(0-inf),"oral, 50 mg, single dose 50 mg (1 × 50 mg), fasted, read-out: AUC0–∞, geometric mean (CV%)",4520 ng·h/mL
same,Cmax,"oral, 50 mg, single dose 50 mg (1 × 50 mg), fasted, read-out: Cmax, geometric mean (CV%)",358 ng/mL
same,Tmax,"oral, 50 mg, single dose 50 mg (1 × 50 mg), fasted, read-out: Tmax, median (min–max)",3.04 h
same,Vd/F,"oral, 50 mg, single dose 50 mg (1 × 50 mg), fasted",200 L
same,half-life,"oral, 50 mg, single dose 50 mg (1 × 50 mg), fasted, read-out: t½, arithmetic mean (SD) (converted)",762 min
same,AUC(0-t),"oral, 50 mg, single dose 50 mg (1 × 50 mg), fed, read-out: AUC0–tlast, geometric mean (CV%)",4930 ng·h/mL
same,AUC(0-inf),"oral, 50 mg, single dose 50 mg (1 × 50 mg), fed, read-out: AUC0–∞, geometric mean (CV%)",5420 ng·h/mL
same,Cmax,"oral, 50 mg, single dose 50 mg (1 × 50 mg), fed, read-out: Cmax, geometric mean (CV%)",389 ng/mL
same,Tmax,"oral, 50 mg, single dose 50 mg (1 × 50 mg), fed, read-out: Tmax, median (min–max)",5 h
same,Vd/F,"oral, 50 mg, single dose 50 mg (1 × 50 mg), fed",169 L
same,half-life,"oral, 50 mg, single dose 50 mg (1 × 50 mg), fed, read-out: t½, arithmetic mean (SD) (converted)",774 min
same,AUC(0-t),"oral, 50 mg, single dose 50 mg (10 × 5 mg), fasted, read-out: AUC0–tlast, geometric mean (CV%)",6890 ng·h/mL
same,AUC(0-inf),"oral, 50 mg, single dose 50 mg (10 × 5 mg), fasted, read-out: AUC0–∞, geometric mean (CV%)",7480 ng·h/mL
same,Cmax,"oral, 50 mg, single dose 50 mg (10 × 5 mg), fasted, read-out: Cmax, geometric mean (CV%)",861 ng/mL
same,Tmax,"oral, 50 mg, single dose 50 mg (10 × 5 mg), fasted, read-out: Tmax, median (min–max)",1.75 h
same,Vd/F,"oral, 50 mg, single dose 50 mg (10 × 5 mg), fasted",133 L
same,half-life,"oral, 50 mg, single dose 50 mg (10 × 5 mg), fasted, read-out: t½, arithmetic mean (SD) (converted)",828 min
same,AUC(0-t),"oral, 100 mg, single dose 100 mg (2 × 50 mg), fasted, read-out: AUC0–tlast, geometric mean (CV%)",5910 ng·h/mL
same,AUC(0-inf),"oral, 100 mg, single dose 100 mg (2 × 50 mg), fasted, read-out: AUC0–∞, geometric mean (CV%)",6380 ng·h/mL
same,Cmax,"oral, 100 mg, single dose 100 mg (2 × 50 mg), fasted, read-out: Cmax, geometric mean (CV%)",525 ng/mL
same,Tmax,"oral, 100 mg, single dose 100 mg (2 × 50 mg), fasted, read-out: Tmax, median (min–max)",3.5 h
same,Vd/F,"oral, 100 mg, single dose 100 mg (2 × 50 mg), fasted",282 L
same,half-life,"oral, 100 mg, single dose 100 mg (2 × 50 mg), fasted, read-out: t½, arithmetic mean (SD) (converted)",768 min
same,AUC(0-t),"oral, 200 mg, single dose 200 mg (4 × 50 mg), fasted, read-out: AUC0–tlast, geometric mean (CV%)",11500 ng·h/mL
same,AUC(0-inf),"oral, 200 mg, single dose 200 mg (4 × 50 mg), fasted, read-out: AUC0–∞, geometric mean (CV%)",12900 ng·h/mL
same,Cmax,"oral, 200 mg, single dose 200 mg (4 × 50 mg), fasted, read-out: Cmax, geometric mean (CV%)",1010 ng/mL
same,Tmax,"oral, 200 mg, single dose 200 mg (4 × 50 mg), fasted, read-out: Tmax, median (min–max)",3.5 h
same,Vd/F,"oral, 200 mg, single dose 200 mg (4 × 50 mg), fasted",344 L
same,half-life,"oral, 200 mg, single dose 200 mg (4 × 50 mg), fasted, read-out: t½, arithmetic mean (SD) (converted)",930 min
same,AUC(0-t),"oral, 400 mg, single dose 400 mg (8 × 50 mg), fasted, read-out: AUC0–tlast, geometric mean (CV%)",19000 ng·h/mL
same,AUC(0-inf),"oral, 400 mg, single dose 400 mg (8 × 50 mg), fasted, read-out: AUC0–∞, geometric mean (CV%)",21600 ng·h/mL
same,Cmax,"oral, 400 mg, single dose 400 mg (8 × 50 mg), fasted, read-out: Cmax, geometric mean (CV%)",1550 ng/mL
same,Tmax,"oral, 400 mg, single dose 400 mg (8 × 50 mg), fasted, read-out: Tmax, median (min–max)",4 h
same,Vd/F,"oral, 400 mg, single dose 400 mg (8 × 50 mg), fasted",398 L
same,half-life,"oral, 400 mg, single dose 400 mg (8 × 50 mg), fasted, read-out: t½, arithmetic mean (SD) (converted)",912 min
same,Tmax,"oral, 5–50 mg (5 mg capsule), single dose, fasted, read-out: Median Tmax, range across doses",1.75 to 2 h
same,Tmax,"oral, 50–400 mg (50 mg capsule), single dose, fasted, read-out: Median Tmax, range across doses",3.04 to 4 h
same,half-life,"po, single and multiple oral doses, fasted, read-out: Mean half-life, range across doses",660 to 960 min
same,Tmax,"po, single and multiple oral doses, fasted, read-out: Time of maximum plasma concentration (median), range across doses",1.75 to 4 h
same,half-life,"po, single oral dose, read-out: Arithmetic mean terminal half-life (t½), range across doses",678 to 930 min
same,"CL/F, geometric mean (CV%)","single dose 5 mg (1 × 5 mg), fasted",7.02 (24.5) L/h
same,"CL/F, geometric mean (CV%)","single dose 20 mg (4 × 5 mg), fasted",5.97 (10.2) L/h
same,"CL/F, geometric mean (CV%)","single dose 50 mg (1 × 50 mg), fasted",11.1 (43.2) L/h
same,"CL/F, geometric mean (CV%)","single dose 50 mg (1 × 50 mg), fed",9.23 (21.5) L/h
same,"CL/F, geometric mean (CV%)","single dose 50 mg (10 × 5 mg), fasted",6.69 (42.6) L/h
same,"CL/F, geometric mean (CV%)","single dose 100 mg (2 × 50 mg), fasted",15.7 (21.1) L/h
same,"CL/F, geometric mean (CV%)","single dose 200 mg (4 × 50 mg), fasted",15.5 (33.7) L/h
same,"CL/F, geometric mean (CV%)","single dose 400 mg (8 × 50 mg), fasted",18.5 (25.0) L/h
